Source: US20080319175A1, “Transthyretin Stabilization” (The Scripps Research Institute, priority 2004, published 2008)
“Also recorded” adds a separate entry of the source.

Columns and labels:
WT-TTR = molecular target: T1, WT-TTR (Homo sapiens, UniProt P02766); assay: stagnant acid-mediated TTR fibril formation assay (turbidity); format: biochemical; details: WT-TTR 3.6 μM; for inhibitor potency against fibril formation (in words): inhibitor 3.6 μM, pH 4.4, 72 h
T1 construct: made in house
Procedure: (§1) TTR amyloid inhibition efficacy was probed using a stagnant fibril formation assay described previously, wherein partial denaturation was triggered by acidification (pH 4.4, 37° C.) (Colon, W.; Kelly, J. W. Biochemistry 1992, 31, 8654-8660). Briefly, a test compound (7.2 or 3.6 μM) is incubated with TTR (3.6 μM) for 30 min in pH 7 buffer. Amyloidogenesis is then initiated by lowering to pH 4.4, where maximal fibril formation is observed with WT-TTR after 72 h (37° C.). The turbidity in the presence of a potential inhibitor (Ttest) is compared to that of a solution lacking a test compound (Tcontrol). […] From experience we know that excellent inhibitors allow <10% fibril formation at a small molecule concentration of 7.2 μM and <40% fibril formation at a concentration equal to that of WT-TTR (3.6 μM) (Hammarstrom, P.; et al. Science 2003, 299, 713-716; Klabunde, T.; et al. Nature Struct. Biol. 2000, 7, 312-321; Razavi, H.; et al. Angew Chem 2003, 42, 2758-2761; Miroy, G. J.; et al. Proc. Natl. Acad. Sci. USA 1996, 93, 15051-15056; Peterson, S. A.; et al. Proc. Natl. Acad. Sci. USA 1998, 95, 12956-12960; Baures, P. W.; et al. Bioorg. Med. Chem. 1998, 6, 1389-1401; Baures, P. W.; et al. Bioorg. Med. Chem. 1999, 7, 1339-1347; Petrassi, H. M.; et al. J. Am. Chem. Soc. 2000, 122, 2178-2192; McCammon, M. G.; et al. Structure 2002, 10, 851-863; Oza, V. B.; et al. J. Med. Chem. 2002, 45, 321-332; Sacchettini, J. C.; et al. Nature Rev. Drug Disc. 2002, 1, 267-275; Green, N. S.; et al. J. Am. Chem. Soc. 2003, 125, 13404-13414; Adamski-Werner, S. L.; et al. J. Med. Chem. 2004, 47, 355-374; Miller Sean, R.; et al. Lab. Inv. 2004, 84, 545-552). […] Therefore, when both the ligand and TTR are at equal concentrations, a population of TTR•I, TTR•I2 and unliganded TTR is observed, dictated by the dissociation constants. It is now established by other studies that inhibitor occupancy of only one of the two TTR binding sites is sufficient to stabilize the entire tetramer against amyloidogenesis (Wiseman, R. L.; et al. J. Am. Chem. Soc. 2005, in press). This is further supported by the observation herein that twenty-six of these dibenzofurans are excellent TTR amyloidogenesis inhibitors (<40% fibril formation) at a concentration equal to that of TTR (3.6 μM each, FIG. 3).
(§2) The procedures used for bacterial expression of TTR (Lai, Z.; et al. Biochemistry 1996, 35, 6470-6482), the stagnant fibril formation assay (Colon, W.; Kelly, J. W. Biochemistry 1992, 31, 8654-8660; Lai, Z.; et al. Biochemistry 1996, 35, 6470-6482), the blood plasma binding selectivity assay (Purkey, H. E.; et al. Proc. Natl. Acad. Sci. USA 2001, 98, 5566-5571), and analytical ultracentrifugation (Lashuel, H. A.; et al. Biochemistry 1998, 37, 17851-17864) have all been described in detail previously.
FIG. 2 is a table highlighting the concentration dependent acid-substituted dibenzofuran activity against WT-TTR (3.6 μM) amyloid fibril formation (f.f.) at pH 4.4 (72 h). Values represent the extent of f.f. and thus inhibitor efficacy relative to WT-TTR fibril formation in the absence of inhibitor (assigned to be 100%): complete inhibition is equivalent to 0% f.f.
(§3) FIG. 3 is a chart showing a summary of dibenzofuran-based amyloid inhibition activity ([…]) against WT-TTR ([…]) fibril formation (pH 4.4, 72 h) and binding stoichiometry to TTR in human blood plasma. % Fibril formation (f.f.) values in the middle column represent the extent of f.f., and thus inhibitor efficacy, relative to WT-TTR f.f. in the absence of inhibitor (assigned to be 100%). Complete inhibition is equivalent to 0% f.f. The right column depicts the observed stoichiometry of inhibitor (dosed at […], ˜2-3× the concentration of plasma TTR) bound to TTR in blood plasma as determined using the antibody capture method.
FIG. 6 is a chart showing dibenzofuran-based inhibitor activity (7.2 μM) against WT-TTR (3.6 μM) amyloid fibril formation (f.f.) at pH 4.4 (72 h). […]

[1] = precipitation of small molecule under acid-mediated amyloidogenic conditions in the absence of TTR; format: physicochemical; details: 3.6 μM, pH 4.4, 37° C., 72 h
Procedure: as §1

[2] = molecular target: T2, TTR in human blood plasma (Homo sapiens, UniProt P02766); assay: blood plasma TTR binding selectivity, antibody capture method; details: inhibitor 10.8 μM
T2 construct: from tissue; host or cells: human blood plasma
Procedure: Inhibitor binding selectivity to TTR in human blood plasma was assessed using a previously established antibody capture method (Purkey, H. E.; et al. Proc. Natl. Acad. Sci. USA 2001, 98, 5566-5571). In this evaluation, inhibitors (10.8 μM, ˜2-3× the natural concentration of TTR) are incubated in human blood plasma for 24 h at 37° C. Quenched sepharose resin is then added to the plasma to remove any small molecules that would bind to the resin as opposed to TTR. TTR and any TTR-bound small molecule is then immunocaptured using a polyclonal TTR antibody covalently attached to sepharose resin. After washing the resin (5×10 min washes), the antibody-TTR complex is dissociated at high pH and analyzed by RP-HPLC. The relative stoichiometry between TTR and inhibitor is then calculated from their HPLC peak areas using standard curves.
as §2, §3

SMILES	inhibitor potency against fibril formation (in words) (WT-TTR)	precipitation of compound in the absence of TTR [1]	binding selectivity to TTR in human blood plasma (in words) [2]	also measured
O=C(O)c1cc(Nc2ccc(C(=O)O)c3oc4c(C(=O)O)cccc4c23)cc(C(=O)O)c1 [Compound 34]	all the inhibitors (except 34) display increased potency relative to the parent compound (1)			inhibition of WT-TTR fibril formation at 7.2 μM inhibitor (in words) (WT-TTR; inhibitor 7.2 μM, pH 4.4, 37° C., 72 h): not as effective; also recorded: all but one (34) completely inhibit fibril formation
O=C(O)c1cccc2c1oc1c(C(=O)O)ccc(Nc3cccc(Cl)c3)c12 [Compound 27]		no measurable precipitation		
O=C(O)c1cccc2c1oc1c(C(=O)O)ccc(Nc3cc(C(F)(F)F)cc(C(F)(F)F)c3)c12 [Compound 31]			all but two (31 and 35) exhibit dramatically increased binding selectivity	
O=C(O)c1cccc2c1oc1c(C(=O)O)ccc(-c3cc(F)cc(F)c3)c12 [Compound 62]		no measurable precipitation		
O=C(O)c1cccc(Nc2ccc(C(=O)O)c3oc4c(C(=O)O)cccc4c23)c1 [Compound 33]	amongst the most potent		modest	
O=C(O)c1cccc2c1oc1c(C(=O)O)ccc(-c3ccccc3F)c12 [Compound 67]	most potent			
O=C(O)c1cccc(-c2ccc(C(=O)O)c3oc4c(C(=O)O)cccc4c23)c1 [Compound 69]	amongst the most potent		modest	
O=C(O)c1cccc2c1oc1c(C(=O)O)ccc(Nc3cccc(C(F)(F)F)c3)c12 [Compound 26]		no measurable precipitation		
O=C(O)c1cccc2c1oc1c(C(=O)O)ccc(Oc3cccc(C(F)(F)F)c3)c12 [Compound 45]		no measurable precipitation		
O=C(O)c1cccc2c1oc1c(C(=O)O)cccc12 [Compound 1, dibenzofuran-4,6-dicarboxylic acid, reference compound]			no measurable binding selectivity	
O=C(O)c1cccc2c1oc1c(C(=O)O)ccc(Nc3cc(Cl)cc(Cl)c3)c12 [Compound 30]		no measurable precipitation		
O=C(O)c1ccc(Nc2ccc(C(=O)O)c3oc4c(C(=O)O)cccc4c23)cc1 [Compound 35]			all but two (31 and 35) exhibit dramatically increased binding selectivity	
O=C(O)c1cccc2c1oc1c(C(=O)O)ccc(Nc3ccccc3F)c12 [Compound 36]	most potent			
O=C(O)c1cccc2c1oc1c(C(=O)O)ccc(-c3cc(Cl)cc(Cl)c3)c12 [Compound 63]	most potent			
